{"source": "ChEMBL document CHEMBL1201862", "about": "“PubChem BioAssay data set” (2004)", "key": {"[1]": {"assay": "IC50 of Artemis nuclease activity blockers – biochemical, fluorescence intensity, dose response (AID 720701);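 note: Artemis endonuclease enzyme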", "type": "functional"}, "[2]": {"assay": "blockers of HIV-1 ZM109 envelope-driven cell-cell fusion – HeLa effector, CEM target cells, luciferase, cherry-pick, dose response (AID 652058)", "type": "functional, cell-based"}, "[3]": {"assay": "off-target signal loss in HeLa-CEM21 co-culture – HeLa F-luc CTL cells, cherry-picked, counter-screen for HIV-1 Env fusion inhibitor project, dose response (AID 652040);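 note: potency for signal decrease marking cytotoxic or nonspecific inhibition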", "type": "functional, cell-based"}, "[4]": {"assay": "HIV-1 AD8 envelope cell-cell fusion blockers – cherry-pick, dose response (AID 652062);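 note: potency is for inhibitors of fusion seen as a drop in luminescence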", "type": "functional, cell-based"}, "Mu-type opioid receptor": {"target": "Mu-type opioid receptor (Homo sapiens, UniProt P35372)", "sequence (P35372 whole entry)": "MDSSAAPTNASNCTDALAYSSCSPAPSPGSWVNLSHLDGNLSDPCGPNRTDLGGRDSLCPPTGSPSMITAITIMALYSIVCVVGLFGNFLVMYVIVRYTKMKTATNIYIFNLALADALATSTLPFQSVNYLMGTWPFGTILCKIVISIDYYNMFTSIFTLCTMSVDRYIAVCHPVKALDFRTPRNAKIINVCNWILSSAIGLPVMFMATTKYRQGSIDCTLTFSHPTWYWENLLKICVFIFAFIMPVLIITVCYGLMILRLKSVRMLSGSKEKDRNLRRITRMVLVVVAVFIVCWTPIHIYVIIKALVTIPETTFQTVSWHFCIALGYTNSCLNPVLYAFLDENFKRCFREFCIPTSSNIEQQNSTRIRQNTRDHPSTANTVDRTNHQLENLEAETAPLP", "type": "functional, cell-based"}, "[5]": {"target": "5-hydroxytryptamine receptor 2A (Mus musculus, UniProt P35363)", "sequence (P35363 whole entry)": "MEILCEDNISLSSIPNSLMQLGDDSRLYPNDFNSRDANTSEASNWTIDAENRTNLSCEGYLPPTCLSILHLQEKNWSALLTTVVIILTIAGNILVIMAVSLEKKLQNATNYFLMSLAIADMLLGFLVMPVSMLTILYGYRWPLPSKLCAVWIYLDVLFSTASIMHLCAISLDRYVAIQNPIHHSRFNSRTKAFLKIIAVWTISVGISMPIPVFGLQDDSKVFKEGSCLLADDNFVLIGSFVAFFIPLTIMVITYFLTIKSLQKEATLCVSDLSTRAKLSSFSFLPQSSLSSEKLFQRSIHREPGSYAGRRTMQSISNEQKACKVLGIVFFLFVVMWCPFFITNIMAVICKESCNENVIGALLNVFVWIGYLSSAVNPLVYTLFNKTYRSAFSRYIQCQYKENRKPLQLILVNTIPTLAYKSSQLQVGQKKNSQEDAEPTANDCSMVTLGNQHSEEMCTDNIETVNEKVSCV", "type": "functional, cell-based"}, "BJ [6]": {"system": "BJ", "assay": "BJ-TERT fibroblast viability loss – cell-based, RAS-independent, luminescence, dose response (AID 1933)", "type": "functional", "details": "Homo sapiens"}, "BJ [7]": {"system": "BJ", "assay": "cells", "type": "functional, cell-based", "details": "Homo sapiens"}, "BJ [8]": {"system": "BJ", "assay": "BJ-TERT-LT-ST fibroblast viability loss – cell-based, RAS-independent, luminescence, dose response (AID 1935);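 note: BJ fibroblasts immortalized with TERT plus LT and ST oncogenes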", "type": "functional", "details": "Homo sapiens"}, "[9]": {"assay": "DRD fibroblast viability loss – cell-based, non-viral oncogenic, luminescence, dose response (AID 1934)", "type": "functional", "details": "Homo sapiens"}, "[10]": {"assay": "Luminescence Cell-Based Dose Retest to Confirm Inhibitors of Cancer Stem Cells. [Related pubchem assays (depositor defined):AID2717, AID2721]", "type": "functional", "details": "Homo sapiens"}, "BJ [11]": {"system": "BJ", "assay": "growth inhibition of engineered Ras-driven BJ cells – cell-based, alamar blue fluorescence, cherrypicked samples, dose response (AID 2631)", "type": "functional", "details": "Homo sapiens"}, "[12]": {"assay": "blockers of HIV-1 envelope-mediated cell-cell fusion – cherry-pick, dose response (AID 652057)", "type": "functional, cell-based"}, "Paired box protein Pax-8": {"target": "Paired box protein Pax-8 (Homo sapiens, UniProt Q06710)", "sequence (Q06710 whole entry)": "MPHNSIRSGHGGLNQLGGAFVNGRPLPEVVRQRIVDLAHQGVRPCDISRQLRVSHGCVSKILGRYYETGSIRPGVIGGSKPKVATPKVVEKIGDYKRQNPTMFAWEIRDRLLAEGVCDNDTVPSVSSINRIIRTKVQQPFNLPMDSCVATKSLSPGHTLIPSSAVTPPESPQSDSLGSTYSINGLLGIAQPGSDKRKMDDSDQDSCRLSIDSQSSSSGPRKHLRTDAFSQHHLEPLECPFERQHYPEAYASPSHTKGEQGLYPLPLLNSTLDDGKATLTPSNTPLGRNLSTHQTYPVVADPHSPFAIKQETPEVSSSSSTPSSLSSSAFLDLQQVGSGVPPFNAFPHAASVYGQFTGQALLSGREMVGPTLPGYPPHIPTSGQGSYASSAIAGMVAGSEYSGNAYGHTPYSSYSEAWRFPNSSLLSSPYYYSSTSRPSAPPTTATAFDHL", "assay": "PAX8 transcriptional activity inhibition in RMG-I – RMG-I cells, luciferase, cherry-pick, dose response (AID 687027);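 note: luciferase reporter driven by Pax8 target thyroperoxidase promoter measured by SteadyGlo luminescence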", "type": "functional, cell-based"}, "[13]": {"assay": "activation of miR-122 Renilla sensor silencing – cell-based, Huh7 psiCHECK-miR122, Renilla luciferase, cherry-picked, dose response (AID 651956);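 note: huh7 hepatoma cells stably carrying a psiCHECK-2 miR-122 sensor plasmid; renilla luciferase signal reporting endogenous miR-122 activity after 48 h compound exposure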", "type": "functional"}, "[14]": {"target": "Heat shock protein HSP 90-alpha (Homo sapiens, UniProt P07900)", "type": "functional, organism-based"}, "[15]": {"target": "T1, Ubiquitin-conjugating enzyme E2 N (Homo sapiens, UniProt P61088)", "T1 sequence (P61088 whole entry)": "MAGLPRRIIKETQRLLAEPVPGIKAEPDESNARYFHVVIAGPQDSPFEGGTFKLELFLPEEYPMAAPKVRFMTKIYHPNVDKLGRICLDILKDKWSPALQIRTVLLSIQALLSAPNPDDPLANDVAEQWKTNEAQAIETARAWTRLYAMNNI", "type": "functional"}, "[16]": {"target": "T2, DNA repair protein RAD52 homolog (Homo sapiens, UniProt P43351)", "T2 sequence (P43351 whole entry)": "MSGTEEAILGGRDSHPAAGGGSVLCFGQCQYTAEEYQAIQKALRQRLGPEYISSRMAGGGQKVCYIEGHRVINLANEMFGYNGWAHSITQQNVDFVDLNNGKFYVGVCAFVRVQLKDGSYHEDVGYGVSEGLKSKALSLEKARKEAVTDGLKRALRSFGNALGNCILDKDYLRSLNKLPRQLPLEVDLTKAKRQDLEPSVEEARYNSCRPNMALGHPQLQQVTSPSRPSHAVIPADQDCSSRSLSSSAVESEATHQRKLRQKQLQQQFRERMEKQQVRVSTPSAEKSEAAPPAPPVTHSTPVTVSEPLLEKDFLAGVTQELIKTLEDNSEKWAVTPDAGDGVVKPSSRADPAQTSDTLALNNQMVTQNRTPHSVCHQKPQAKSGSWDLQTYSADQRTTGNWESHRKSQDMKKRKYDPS", "type": "functional, biochemical"}, "[17]": {"assay": "Trypanosoma cruzi growth suppression in host cells – NIH3T3 host cells, beta-gal luminescence, confirmation (AID 2044);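 note: intracellular parasites grown in NIH/3T3 mouse fibroblasts as host cells; luminescent beta-galactosidase reporter signal from transgenic T. cruzi replicating inside host cells; inhibitors lower the luminescence signal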", "type": "functional, cell-based"}, "[18]": {"assay": "NIH3T3 cell viability loss – ATP luminescence, mouse fibroblasts, counter-screen, dose response (AID 2010);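 note: cells exposed to compound for about 90 hours before reading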", "type": "functional, cell-based"}, "[19]": {"target": "T3, Replicative DNA helicase DnaB (Mycobacterium tuberculosis, UniProt P9WMR3)", "T3 sequence (P9WMR3 whole entry)": "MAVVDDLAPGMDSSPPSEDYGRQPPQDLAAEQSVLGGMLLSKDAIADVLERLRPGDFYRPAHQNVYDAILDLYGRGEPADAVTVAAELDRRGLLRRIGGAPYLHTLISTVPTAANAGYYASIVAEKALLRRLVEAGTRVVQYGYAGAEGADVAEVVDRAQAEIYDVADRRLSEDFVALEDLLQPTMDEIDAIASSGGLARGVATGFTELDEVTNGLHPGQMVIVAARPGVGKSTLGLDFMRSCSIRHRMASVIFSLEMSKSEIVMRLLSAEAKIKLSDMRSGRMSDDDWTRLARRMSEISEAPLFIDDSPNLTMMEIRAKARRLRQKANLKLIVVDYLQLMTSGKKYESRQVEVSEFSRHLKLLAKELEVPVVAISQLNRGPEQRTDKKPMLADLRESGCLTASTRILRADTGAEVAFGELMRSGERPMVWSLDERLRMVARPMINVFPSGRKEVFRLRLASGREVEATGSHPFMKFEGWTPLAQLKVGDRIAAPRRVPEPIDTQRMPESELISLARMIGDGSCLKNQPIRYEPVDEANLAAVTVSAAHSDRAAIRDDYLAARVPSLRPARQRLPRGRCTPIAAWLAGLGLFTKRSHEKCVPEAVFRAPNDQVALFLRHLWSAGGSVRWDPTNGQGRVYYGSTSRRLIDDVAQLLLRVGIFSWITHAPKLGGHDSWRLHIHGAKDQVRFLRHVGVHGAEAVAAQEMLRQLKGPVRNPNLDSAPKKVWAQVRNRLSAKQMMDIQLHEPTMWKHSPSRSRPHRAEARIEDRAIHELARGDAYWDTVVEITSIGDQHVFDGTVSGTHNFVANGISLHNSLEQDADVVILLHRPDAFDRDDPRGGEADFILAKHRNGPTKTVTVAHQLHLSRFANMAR", "assay": "DnaB intein splicing inhibitors, dose response, biochemical, cell-free fluorescence (AID 449749)", "type": "functional"}, "Vero": {"system": "Vero", "assay": "viability of Vero cells under compound – cytotoxicity control for flavivirus capping enzyme inhibitors (AID 588742)", "type": "functional", "details": "Chlorocebus sabaeus"}, "Protein RecA": {"target": "T4, Protein RecA (Mycobacterium tuberculosis, UniProt P9WHJ3)", "T4 sequence (P9WHJ3 whole entry)": "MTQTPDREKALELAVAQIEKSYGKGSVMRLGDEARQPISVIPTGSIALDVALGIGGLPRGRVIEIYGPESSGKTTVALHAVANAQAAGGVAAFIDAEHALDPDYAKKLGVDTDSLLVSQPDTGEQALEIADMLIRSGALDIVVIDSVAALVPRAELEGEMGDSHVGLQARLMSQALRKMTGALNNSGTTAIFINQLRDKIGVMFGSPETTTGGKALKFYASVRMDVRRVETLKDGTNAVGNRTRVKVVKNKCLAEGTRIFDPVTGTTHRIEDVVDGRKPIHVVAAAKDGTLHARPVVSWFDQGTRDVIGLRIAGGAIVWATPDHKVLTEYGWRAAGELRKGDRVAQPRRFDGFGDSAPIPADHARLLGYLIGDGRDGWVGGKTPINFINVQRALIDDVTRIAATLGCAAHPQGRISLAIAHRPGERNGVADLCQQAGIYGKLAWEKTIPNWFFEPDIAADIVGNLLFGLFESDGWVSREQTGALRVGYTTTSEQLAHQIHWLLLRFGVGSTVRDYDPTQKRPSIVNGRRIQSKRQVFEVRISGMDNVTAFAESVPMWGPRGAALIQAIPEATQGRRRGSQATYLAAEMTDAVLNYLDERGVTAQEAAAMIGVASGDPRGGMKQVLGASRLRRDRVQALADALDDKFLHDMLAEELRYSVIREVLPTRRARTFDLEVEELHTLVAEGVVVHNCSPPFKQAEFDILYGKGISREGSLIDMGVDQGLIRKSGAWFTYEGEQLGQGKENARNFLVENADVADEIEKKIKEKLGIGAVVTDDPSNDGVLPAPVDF", "assay": "Fluorescence Cell-Free Homogeneous Dose Retest to Identify Inhibitors of RecA-Intein Splicing Activity. [Related pubchem assays (depositor defined):AID2097, AID2223, AID489010, AID492950]", "type": "functional"}, "Genome polyprotein": {"target": "Genome polyprotein (dengue virus type 2, UniProt P29990)", "sequence (P29990 2492-3391 limits assumed)": "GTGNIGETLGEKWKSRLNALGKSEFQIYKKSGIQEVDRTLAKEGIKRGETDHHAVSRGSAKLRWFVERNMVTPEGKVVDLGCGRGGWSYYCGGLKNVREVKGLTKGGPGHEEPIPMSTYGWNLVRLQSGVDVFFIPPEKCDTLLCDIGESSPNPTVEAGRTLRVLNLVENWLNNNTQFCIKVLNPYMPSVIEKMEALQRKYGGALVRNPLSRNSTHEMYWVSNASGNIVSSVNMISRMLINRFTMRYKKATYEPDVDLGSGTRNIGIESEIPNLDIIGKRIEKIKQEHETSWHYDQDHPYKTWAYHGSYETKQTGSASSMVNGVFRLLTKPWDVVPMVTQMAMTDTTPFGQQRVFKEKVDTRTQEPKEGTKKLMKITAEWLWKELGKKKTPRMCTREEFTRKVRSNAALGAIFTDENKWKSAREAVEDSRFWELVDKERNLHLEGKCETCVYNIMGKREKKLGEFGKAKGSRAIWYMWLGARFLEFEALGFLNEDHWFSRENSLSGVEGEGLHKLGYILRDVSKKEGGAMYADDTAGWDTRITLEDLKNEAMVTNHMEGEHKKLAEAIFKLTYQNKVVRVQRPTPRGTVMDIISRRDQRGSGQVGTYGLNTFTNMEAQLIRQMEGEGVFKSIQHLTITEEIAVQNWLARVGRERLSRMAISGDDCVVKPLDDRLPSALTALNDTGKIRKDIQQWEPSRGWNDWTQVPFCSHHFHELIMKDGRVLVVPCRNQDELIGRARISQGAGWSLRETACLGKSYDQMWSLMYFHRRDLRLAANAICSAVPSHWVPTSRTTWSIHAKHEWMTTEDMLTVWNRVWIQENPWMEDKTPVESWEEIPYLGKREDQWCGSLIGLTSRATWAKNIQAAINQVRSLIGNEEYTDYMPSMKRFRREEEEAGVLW", "assay": "flavivirus cap methylation enzyme inhibition – biochemical, confirmation dose response, primary screen (AID 588689)", "type": "functional"}}, "note": "Active and inactive are the calls of the source."}
{"smiles": "CC(C)(C)Nc1nc(NN)nc(NC(C)(C)C)n1", "values": [{"measurement": "IC50", "setting": "[1]", "value": "17.9 µM (active)"}]}
{"smiles": "CNc1nc2c(c(=O)n(C)c(=O)n2C)n1Cc1ccccc1", "values": [{"measurement": "AC50", "setting": "[2]", "value": "10.2 µM (active)"}, {"measurement": "AC50", "setting": "[3]", "value": "> 70 µM (inactive)"}, {"measurement": "AC50", "setting": "[4]", "value": "13.9 µM (active)"}]}
{"smiles": "CCCCN(CC)CCCNC(=O)CC1Oc2ccccc2NC1=O", "note": "(stereo unspecified)", "values": [{"measurement": "EC50", "setting": "Mu-type opioid receptor", "value": "92.5 µM (inactive)"}, {"measurement": "EC50", "setting": "[5]", "value": "3.3 µM (active)"}]}
{"smiles": "CC[C@@]1(O)C(=O)OCc2c1cc1n(c2=O)Cc2cc3c(NC(=O)CN)cccc3nc2-1", "values": [{"measurement": "EC50", "setting": "BJ [6]", "value": "10.3 µM (active)"}, {"measurement": "EC50", "setting": "BJ [7]", "value": "1.46 µM (active)"}, {"measurement": "EC50", "setting": "BJ [8]", "value": "1.2 µM (active)"}, {"measurement": "EC50", "setting": "[9]", "value": "2.4 µM (active)"}, {"measurement": "AC50", "setting": "[10]", "value": "0.281 µM (active)"}, {"measurement": "EC50", "setting": "BJ [11]", "value": "0.418 µM (active)"}, {"measurement": "AC50", "setting": "[12]", "value": "0.618 µM (active)"}, {"measurement": "AC50", "setting": "[2]", "value": "< 0.26 µM (active)"}, {"measurement": "AC50", "setting": "Paired box protein Pax-8", "value": "1.11 µM (active)"}, {"measurement": "AC50", "setting": "[3]", "value": "0.896 µM (active)"}, {"measurement": "AC50", "setting": "[4]", "value": "14.6 µM (active)"}]}
{"smiles": "Nc1ccc(Oc2ccc(Br)cc2)cc1", "values": [{"measurement": "AC50", "setting": "[13]", "value": "0.378 µM (active)"}]}
{"smiles": "O=C(c1cccs1)N1CCN(Cc2ccccc2)CC1", "values": [{"measurement": "EC50", "setting": "Mu-type opioid receptor", "value": "92.4 µM (inactive)"}, {"measurement": "EC50", "setting": "[5]", "value": "1.02 µM (active)"}]}
{"smiles": "Cc1ccc(CSc2nc3ccsc3c(=O)n2Cc2ccccn2)cc1", "values": [{"measurement": "AC50", "setting": "[14]", "value": "5 µM (active)"}]}
{"smiles": "COc1cccc2sc(N(CCCN(C)C)C(=O)c3sc4ccccc4c3Cl)nc12", "values": [{"measurement": "IC50", "setting": "[15]", "value": "> 20 µM (inactive)"}, {"measurement": "AC50", "setting": "[16]", "value": "6.13 µM (active)"}]}
{"smiles": "Cn1nc([N+](=O)[O-])c(C(C#N)c2ccccn2)c(Cl)c1=O", "note": "(stereo unspecified)", "values": [{"measurement": "EC50", "setting": "[17]", "value": "4.82 µM (active)"}, {"measurement": "EC50", "setting": "[18]", "value": "> 30 µM (not active)"}, {"measurement": "AC50", "setting": "[10]", "value": "5.48 µM (active)"}, {"measurement": "AC50", "setting": "[19]", "value": "25.8 µM (active)"}, {"measurement": "CC50", "setting": "Vero", "value": "12 µM (active)"}, {"measurement": "EC50", "setting": "Protein RecA", "value": "9.8 µM (active)"}, {"measurement": "IC50", "setting": "Genome polyprotein", "value": "26.5 µM (active)"}]}
{"smiles": "CN(C)/C=C/C(=O)c1ccc(Oc2ccccc2)cc1", "values": [{"measurement": "AC50", "setting": "[14]", "value": "4.26 µM (active)"}]}
